According to patent publication US20090298878A1, “OXIME COMPOUNDS AND THE USE THEREOF” (priority 2006, published 2009):
Where a name gives a salt, the structure may show the parent alone.

These compounds were tested against T1, N-type calcium channel (NTCC) (Homo sapiens, UniProt Q00975) (assay: FLIPR calcium mobilization assay for N-type calcium channel (differentiated IMR32 cells)). Settings: about 1.0 μM or less; calcium mobilization and/or electrophysiological assay.
T1 construct: host or cells: IMR32 cells differentiated with dibutyryl cAMP and bromodeoxyuridine
Format: cell-based
Description: Cell maintenance and differentiation. Unless noted otherwise, cell culture reagents were purchased from Mediatech of Hemdon, Md. IMR32 cells (American Type Culture Collection, ATCC, Manassas, Va.) were routinely cultured in growth medium consisting of minimum essential medium containing 10% fetal bovine serum (FBS, Hyclone, Logan, Utah), 100 U/mL penicillin, 100 μg/mL streptomycin, 2 mM L-glutamine, 1 mM sodium pyruvate, and 1× MEM non-essential amino acids. 80-90% confluent flasks of cells were differentiated using the following differentiation medium: Growth medium plus 1 mM dibutyryl cyclic AMP (Sigma, St. Louis, Mo.), and 2.5 μM bromodeoxyuridine (Sigma). Cells were differentiated for 8 days by replacing differentiation medium every 2-3 days.
FLIPR Calcium Mobilization Assay for N-type Calcium Channel. One day prior to performing this assay, differentiated IMR32 cells were treated with 1× CellStripper, and seeded on poly-D-lysine-coated 96-well clear-bottom black plates (Becton Dickinson, Franklin Lakes, N.J.) at 200,000 cells/well. On the day of the assay, the cell plates were washed with IMR32 buffer (127 mM NaCl, 1 mM KCl, 2 mM MgCl2, 700 μM NaH2PO4, 5 mM CaCl2, 5 mM NaHCO3, 8 mM HEPES, 10 mM glucose, pH 7.4), then pre-stimulated with KCl and loaded as follows: 0.05 mL of IMR32 buffer, 0.05 mL of each compound tested diluted in IMR32 buffer containing 20 μM nitrendipine (Sigma), and 0.1 mL KCl dissolved in IMR32 buffer, plus Fluo-4 were added (3 μM final concentration, Molecular Probes, Eugene, Oreg.). Final test compound concentrations ranged from about 846 pM to about 17 μM, final nitrendipine concentration was 5 μM, and final KCl concentration was 90 mM. After 1 hour, the cells were washed twice with 0.05 mL of each compound tested in nitrendipine-containing IMR32 buffer (no KCl or Fluo-4), and then replaced with 0.1 mL of each compound tested in nitrendipine-containing IMR32 buffer. Plates were then transferred to a Fluorimetric imaging Plate Reader (FLIPR^96, Molecular Devices, Inc., Sunnyvale, Calif.) for assay. The FLIPR measured basal Fluo-4 fluorescence for 315 seconds (i.e., 5 minutes and 15 seconds), then added 0.1 mL KCl agonist dissolved in IMR32 buffer and measured fluorescence for another 45 seconds. Final test compound concentrations on the cells after FLIPR read ranged from about 846 pM to about 17 μM, final nitrendipine concentration was 5 μM, and final KCl concentration was 90 mM. Data were collected over the entire time course and analyzed using Excel, Graph Pad Prism (version 3.02, Graph Pad, San Diego, Calif.), or an in-house non-linear regression analysis software.

T1 sequence (Q00975 whole entry): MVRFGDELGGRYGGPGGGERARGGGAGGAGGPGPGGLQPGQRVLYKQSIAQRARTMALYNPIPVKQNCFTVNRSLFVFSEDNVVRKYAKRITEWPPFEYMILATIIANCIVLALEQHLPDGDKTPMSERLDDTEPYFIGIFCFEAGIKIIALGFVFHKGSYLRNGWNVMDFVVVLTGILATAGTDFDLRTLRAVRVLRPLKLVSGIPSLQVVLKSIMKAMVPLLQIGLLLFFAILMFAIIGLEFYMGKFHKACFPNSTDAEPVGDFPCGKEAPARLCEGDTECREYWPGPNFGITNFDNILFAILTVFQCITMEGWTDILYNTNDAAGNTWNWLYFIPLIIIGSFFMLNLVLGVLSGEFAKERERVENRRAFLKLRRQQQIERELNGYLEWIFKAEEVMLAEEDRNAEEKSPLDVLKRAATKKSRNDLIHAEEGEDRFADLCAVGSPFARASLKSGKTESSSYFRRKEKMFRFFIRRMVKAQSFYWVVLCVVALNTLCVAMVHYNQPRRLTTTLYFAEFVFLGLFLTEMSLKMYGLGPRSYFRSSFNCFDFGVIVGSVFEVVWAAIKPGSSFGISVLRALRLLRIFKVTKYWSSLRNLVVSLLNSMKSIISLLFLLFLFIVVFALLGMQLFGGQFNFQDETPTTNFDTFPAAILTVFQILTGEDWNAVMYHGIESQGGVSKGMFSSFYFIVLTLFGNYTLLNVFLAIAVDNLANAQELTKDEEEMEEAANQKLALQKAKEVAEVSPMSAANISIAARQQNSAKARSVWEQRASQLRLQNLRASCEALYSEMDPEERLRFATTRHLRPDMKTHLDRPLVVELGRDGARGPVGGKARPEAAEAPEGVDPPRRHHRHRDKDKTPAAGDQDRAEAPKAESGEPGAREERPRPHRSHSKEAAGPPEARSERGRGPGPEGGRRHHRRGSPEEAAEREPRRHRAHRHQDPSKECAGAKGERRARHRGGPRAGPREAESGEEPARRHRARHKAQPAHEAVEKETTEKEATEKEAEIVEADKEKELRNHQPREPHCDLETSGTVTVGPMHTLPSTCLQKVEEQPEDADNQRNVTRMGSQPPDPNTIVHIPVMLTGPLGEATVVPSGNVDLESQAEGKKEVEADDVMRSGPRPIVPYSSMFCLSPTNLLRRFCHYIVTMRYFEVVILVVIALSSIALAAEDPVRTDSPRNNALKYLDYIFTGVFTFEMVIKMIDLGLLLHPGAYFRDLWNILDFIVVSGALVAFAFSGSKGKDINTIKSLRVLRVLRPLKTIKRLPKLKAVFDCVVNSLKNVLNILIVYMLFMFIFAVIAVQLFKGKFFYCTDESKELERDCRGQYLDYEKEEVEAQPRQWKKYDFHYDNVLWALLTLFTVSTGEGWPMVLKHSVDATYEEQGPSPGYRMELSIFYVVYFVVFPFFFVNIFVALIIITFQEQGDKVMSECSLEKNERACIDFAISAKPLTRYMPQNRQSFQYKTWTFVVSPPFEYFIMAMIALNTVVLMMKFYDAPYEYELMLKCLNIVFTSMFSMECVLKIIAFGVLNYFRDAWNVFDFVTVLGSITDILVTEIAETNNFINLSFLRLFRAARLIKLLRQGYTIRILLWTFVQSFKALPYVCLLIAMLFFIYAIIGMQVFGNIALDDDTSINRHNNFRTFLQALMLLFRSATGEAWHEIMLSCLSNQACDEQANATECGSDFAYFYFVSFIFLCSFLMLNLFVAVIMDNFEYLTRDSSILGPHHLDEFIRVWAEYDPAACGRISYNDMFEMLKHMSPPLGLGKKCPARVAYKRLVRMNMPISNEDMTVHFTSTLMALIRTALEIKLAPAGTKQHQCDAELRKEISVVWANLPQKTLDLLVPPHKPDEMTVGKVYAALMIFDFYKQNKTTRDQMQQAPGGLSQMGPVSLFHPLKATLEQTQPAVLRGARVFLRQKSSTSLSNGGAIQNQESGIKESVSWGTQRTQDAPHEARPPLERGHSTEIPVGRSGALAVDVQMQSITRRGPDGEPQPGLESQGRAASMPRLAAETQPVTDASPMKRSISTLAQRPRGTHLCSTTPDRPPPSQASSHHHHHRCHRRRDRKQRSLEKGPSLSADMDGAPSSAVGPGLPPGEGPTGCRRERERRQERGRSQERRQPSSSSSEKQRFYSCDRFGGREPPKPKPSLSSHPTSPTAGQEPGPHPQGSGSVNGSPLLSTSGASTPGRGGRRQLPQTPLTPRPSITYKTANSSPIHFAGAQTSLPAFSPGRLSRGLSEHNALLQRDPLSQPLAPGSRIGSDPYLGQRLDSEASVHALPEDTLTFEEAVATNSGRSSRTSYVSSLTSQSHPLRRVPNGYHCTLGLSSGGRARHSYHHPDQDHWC

| Structure (SMILES) | IC50 [nM] |
| --- | --- |
| CCCCc1ccc(S(=O)(=O)N2CCC(=NOCc3ccc(Cl)cc3)CC2)cc1 [Example 72, 1-(4-Butylbenzenesulfonyl)piperidin-4-one O-(4-chlorobenzyl)oxime] | ≤ 1000 |
| CCCCc1ccc(S(=O)(=O)N2CCC(=NOCc3cc(Cl)ccn3)CC2)cc1 [Example 73, 1-(4-Butylbenzenesulfonyl)piperidin-4-one O-(4-chloropyridin-2-ylmethyl)oxime] | ≤ 1000 |
| CCCCc1ccc(S(=O)(=O)N2CCC(=NOC(C)c3cccc(C(F)(F)F)c3)CC2)cc1 (centres unmarked) [Example 74, 1-(4-Butylbenzenesulfonyl)piperidin-4-one O-[1-(3-trifluoromethylphenyl)ethyl]oxime] | ≤ 1000 |
| CCCCc1ccc(S(=O)(=O)N2CCC(=NOCc3cccc(Cl)n3)CC2)cc1 [Example 75, 1-(4-Butylbenzenesulfonyl)piperidin-4-one O-(6-chloropyridin-2-ylmethyl)oxime] | ≤ 1000 |
| CCCCc1ccc(S(=O)(=O)N2CCC(=NOCc3cccc(OC)n3)CC2)cc1 [Example 76, 1-(4-Butylbenzenesulfonyl)piperidin-4-one O-(6-methoxypyridin-2-ylmethyl)oxime] | ≤ 1000 |
| CCCCc1ccc(S(=O)(=O)N2CCC(=NOCc3ccccc3C(F)(F)F)CC2)cc1 [Example 78, 1-(4-Butylbenzenesulfonyl)piperidin-4-one O-(2-trifluoromethylbenzyl)oxime] | ≤ 1000 |
| CCCCc1ccc(S(=O)(=O)N2CCC(=NOCc3cccc(OC(F)(F)F)c3)CC2)cc1 [Example 79, 1-(4-Butylbenzenesulfonyl)piperidin-4-one O-(3-trifluoromethoxybenzyl)oxime] | ≤ 1000 |
| CCCCc1ccc(S(=O)(=O)N2CCC(=NOCc3cccc(OC)c3)CC2)cc1 [Example 80, 1-(4-Butylbenzenesulfonyl)piperidin-4-one O-(3-methoxybenzyl)oxime] | ≤ 1000 |
| CCCCc1ccc(S(=O)(=O)N2CCC(=NOCc3ccc(F)c(C(F)(F)F)c3)CC2)cc1 [Example 81, 1-(4-Butylbenzenesulfonyl)piperidin-4-one O-(4-fluoro-3-trifluoromethylbenzyl)oxime] | ≤ 1000 |
| CCCCc1ccc(S(=O)(=O)N2CCC(=NOCC3CCCCC3)CC2)cc1 [Example 82, 1-(4-Butylbenzenesulfonyl)piperidin-4-one O-cyclohexylmethyloxime] | ≤ 1000 |
| Nc1ccccc1S(=O)(=O)N1CCC(=NOCc2cccc(C(F)(F)F)c2)CC1 [Example 85, 1-(2-Aminobenzenesulfonyl)piperidin-4-one O-(3-trifluoromethylbenzyl)oxime] | ≤ 1000 |
| CCOc1ccc(S(=O)(=O)N2CCC(=NOCc3cccc(C(F)(F)F)c3)CC2)cc1 [Example 91, 1-(4-Ethoxybenzenesulfonyl)piperidin-4-one O-(3-trifluoromethylbenzyl)oxime] | ≤ 1000 |
| CC(C)Oc1ccc(S(=O)(=O)N2CCC(=NOCc3cccc(C(F)(F)F)c3)CC2)cc1 [Example 93, 1-(4-Isopropoxybenzenesulfonyl)piperidin-4-one O-(3-trifluoromethylbenzyl)oxime] | ≤ 1000 |
| COCCOc1ccc(S(=O)(=O)N2CCC(=NOCc3cccc(C(F)(F)F)c3)CC2)cc1 [Example 94, 1-[4-(2-Methoxyethoxy)benzenesulfonyl]piperidin-4-one O-(3-trifluoromethylbenzyl)oxime] | ≤ 1000 |
| O=S(=O)(c1ccc(OCC2CC2)cc1)N1CCC(=NOCc2cccc(C(F)(F)F)c2)CC1 [Example 95, 1-(4-Cyclopropylmethoxybenzenesulfonyl)piperidin-4-one O-(3-trifluoromethylbenzyl)oxime] | ≤ 1000 |
| CCCNc1ccc(S(=O)(=O)N2CCC(=NOCc3cccc(C(F)(F)F)c3)CC2)cn1 [Example 99] | ≤ 1000 |
| O=S(=O)(c1ccc(Oc2ccccc2)nc1)N1CCC(=NOCc2cccc(C(F)(F)F)c2)CC1 [Example 101, 1-(6-Phenoxypyridine-3-sulfonyl)piperidin-4-one O-(3-trifluoromethylbenzyl)oxime] | ≤ 1000 |

Other lines, results leading:

| IC50 [nM] | Structure (SMILES) |
| --- | --- |
| ≤ 1000 | O=C(CCC(c1ccc(F)cc1)c1ccc(F)cc1)N1CCC(=NOCc2cccc(C(F)(F)F)c2)CC1 [Example 29, 1-[4,4-Bis-(4-fluorophenyl)butyryl]piperidin-4-one O-(3-trifluoromethylbenzyl)oxime] |
| ≤ 1000 | O=C(CCC(c1ccc(F)cc1)c1ccc(F)cc1)N1CCC(=NOCc2ccccc2)CC1 [Example 31, 1-[4,4-Bis-(4-fluorophenyl)butyryl]piperidin-4-one O-benzyloxime] |
| ≤ 1000 | O=C(CCN1CCC(c2ccccc2)CC1)N1CCC(=NOCc2cccc(C(F)(F)F)c2)CC1 [Example 47, 1-[3-(4-Phenylpiperidin-1-ylpropionyl]piperidin-4-one O-(3-trifluoromethylbenzyl)oxime hydrochloride] |
| ≤ 1000 | O=C(CCN1CCC(Cc2ccccc2)CC1)N1CCC(=NOCc2cccc(C(F)(F)F)c2)CC1 [Example 48, 1-[3-(4-Benzylpiperidin-1-yl)propionyl]piperidin-4-one O-(3-trifluoromethylbenzyl)oxime hydrochloride] |
| ≤ 1000 | O=S(=O)(c1ccccc1)N1CCC(=NOCc2cccc(C(F)(F)F)c2)CC1 [Example 51, 1-Benzenesulfonylpiperidin-4-one O-(3-trifluoromethylbenzyl)oxime] |
| ≤ 1000 | N#Cc1ccc(S(=O)(=O)N2CCC(=NOCc3cccc(C(F)(F)F)c3)CC2)cc1 [Example 53, 4-[4-(3-Trifluoromethylbenzyloxyimino)piperidine-1-sulfonyl]benzonitrile] |
| ≤ 1000 | O=S(=O)(c1cccc(C(F)(F)F)c1)N1CCC(=NOCc2cccc(C(F)(F)F)c2)CC1 [Example 56, 1-(3-Trifluoromethylbenzenesulfonyl)piperidin-4-one O-(3-trifluoromethylbenzyl)oxime] |
| ≤ 1000 | O=S(=O)(c1ccc(OC(F)(F)F)cc1)N1CCC(=NOCc2cccc(C(F)(F)F)c2)CC1 [Example 58, 1-(4-Trifluoromethoxybenzenesulfonyl)piperidin-4-one O-(3-trifluoromethylbenzyl)oxime] |
| ≤ 1000 | O=S(=O)(c1cccc(OC(F)(F)F)c1)N1CCC(=NOCc2cccc(C(F)(F)F)c2)CC1 [Example 59, 1-(3-Trifluoromethoxybenzenesulfonyl)piperidin-4-one O-(3-trifluoromethylbenzyl)oxime] |
| ≤ 1000 | O=S(=O)(c1ccc(F)cc1)N1CCC(=NOCc2cccc(C(F)(F)F)c2)CC1 [Example 62, 1-(4-Fluorobenzenesulfonyl)piperidin-4-one O-(3-trifluoromethylbenzyl)oxime] |
| ≤ 1000 | O=S(=O)(c1ccccc1F)N1CCC(=NOCc2cccc(C(F)(F)F)c2)CC1 [Example 63, 1-(2-Fluorobenzenesulfonyl)piperidin-4-one O-(3-trifluoromethylbenzyl)oxime] |
| ≤ 1000 | O=S(=O)(c1ccc(Cl)nc1)N1CCC(=NOCc2cccc(C(F)(F)F)c2)CC1 [Example 64, 1-(6-Chloropyridine-3-sulfonyl)piperidin-4-one O-(3-trifluoromethylbenzyl)oxime] |
| ≤ 1000 | CCCCc1ccc(S(=O)(=O)N2CCC(=NOCc3cccc(Cl)c3)CC2)cc1 [Example 65, 1-(4-Butylbenzenesulfonyl)piperidin-4-one O-(3-chlorobenzyl)oxime] |
| ≤ 1000 | CCCCc1ccc(S(=O)(=O)N2CCC(=NOCc3ccccc3)CC2)cc1 [Example 67, 1-(4-Butylbenzenesulfonyl)piperidin-4-one O-benzyloxime] |
| ≤ 1000 | CCCCc1ccc(S(=O)(=O)N2CCC(=NOCc3ccccn3)CC2)cc1 [Example 68, 1-(4-Butylbenzenesulfonyl)piperidin-4-one O-pyridin-2-ylmethyloxime] |
| ≤ 1000 | CCCCc1ccc(S(=O)(=O)N2CCC(=NOCc3ccnc(Cl)c3)CC2)cc1 [Example 69, 1-(4-Butylbenzenesulfonyl)piperidin-4-one O-(2-chloropyridin-4-ylmethyl)oxime] |
| ≤ 1000 | CCCCc1ccc(S(=O)(=O)N2CCC(=NOCc3cccnc3)CC2)cc1 [Example 70, 1-(4-Butylbenzenesulfonyl)piperidin-4-one O-pyridin-3-ylmethyloxime] |
| ≤ 1000 | CCCCc1ccc(S(=O)(=O)N2CCC(=NOCc3ccncc3)CC2)cc1 [Example 71, 1-(4-Butylbenzenesulfonyl)piperidin-4-one O-pyridin-4-ylmethyloxime] |
